Biological target: T1, NfnL (large subunit of NADH-dependent reduced-ferredoxin: NADP+ oxidoreductase NfnSL) (Pyrococcus furiosus, UniProt Q8U195, E126C)
T1 construct: gene sudA; isolated NfnL subunit
Test: intrinsic protein fluorescence quenching titration (ex […] nm, em […] nm), quadratic tight-binding fit

T1 sequence (Q8U195 whole entry E126C): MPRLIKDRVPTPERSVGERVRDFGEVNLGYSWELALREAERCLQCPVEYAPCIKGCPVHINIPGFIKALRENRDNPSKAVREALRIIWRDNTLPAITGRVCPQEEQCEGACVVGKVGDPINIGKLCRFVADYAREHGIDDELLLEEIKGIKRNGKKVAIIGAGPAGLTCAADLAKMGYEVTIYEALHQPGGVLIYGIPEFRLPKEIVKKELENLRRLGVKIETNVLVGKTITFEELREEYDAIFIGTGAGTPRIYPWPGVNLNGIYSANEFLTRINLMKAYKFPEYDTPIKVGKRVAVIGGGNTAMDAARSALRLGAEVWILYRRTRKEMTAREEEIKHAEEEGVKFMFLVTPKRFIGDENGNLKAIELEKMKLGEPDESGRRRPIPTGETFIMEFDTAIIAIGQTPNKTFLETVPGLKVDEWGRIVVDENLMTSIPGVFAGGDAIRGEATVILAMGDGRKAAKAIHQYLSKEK

| Compound | Kd [nM] |
| --- | --- |
| NC(=O)C1=CN([C@@H]2O[C@H](COP(=O)(O)OP(=O)(O)OC[C@H]3O[C@@H](n4cnc5c(N)ncnc54)[C@H](OP(=O)(O)O)[C@@H]3O)[C@@H](O)[C@H]2O)C=CC1 [NADPH] | 2600 ± 600 |
| NC(=O)c1ccc[n+]([C@@H]2O[C@H](COP(=O)([O-])OP(=O)(O)OC[C@H]3O[C@@H](n4cnc5c(N)ncnc54)[C@H](OP(=O)(O)O)[C@@H]3O)[C@@H](O)[C@H]2O)c1 [NADP+] | 2600 ± 600 |
